Measured values reported in patent US11753404B2, “Aminothiazole compounds as c-Kit inhibitors” (Ariad Pharmaceuticals, Inc., priority 2016, dated 2023).

Columns and labels:
Test in all cases: c-Kit assay: Ba/F3 KIT mutant cell viability (Cell Titer-Glo, 72 hours)
Assay type in all cases: cell-based
Conditions in all cases: viability after 72 hours
[1] = biological target: T1, BAF3 FL KIT EX11DEL/T670I (Homo sapiens, UniProt P10721, T670I, cells depend on it, form not given)
T1 construct: BAF3 FL KIT EX11DEL/T670I
Method: (§1) Generation of DBa/F3 KIT Mutant Engineered Cell Lines
(§2) KIT cDNAs were synthesized by GenScript and cloned into the pLVX-IRES-Puro vector (Clontech). Viral particles were produced by transfecting pLVX-IRES-puro vectors containing KIT mutant genes into HEK293 cells (Invitrogen) using the Trans-Lentiviral ORF Packaging Kit (Thermo Scientific). 48 hours post-transfection, virus-containing supernatants were harvested and incubated for another 48-72 hours with parental Ba/F3 cells (DSMZ) in the presence of 10 ng/mL IL-3 (R&D Systems). Transduced Ba/F3 cells were then selected by IL-3 withdrawal and puromycin (0.5-1 μg/mL, Invitrogen).
(§3) Cell lines (e.g., EX11DEL, EX11DEL/D816H, EX11DEL/T670I, and EX11DEL/V654A) were plated into 384 well plates using RPMI 1640 supplemented with 10% FBS at densities that produced linear growth and incubated at 37° C. in 5% (v/v) CO2. Cells were treated with eight concentrations of compound over a 4-fold dilution (10 μM to 0.61 nM) and viability was assessed using Cell Titer-Glo assay (Promega) after 72 hours. Data were plotted as percent viability relative to vehicle-treated cells. Dose-responses curves were generated and used to calculate IC50 values.

[2] = biological target: T2, BAF3 FL KIT EX11DEL/V654A (Homo sapiens, UniProt P10721, V654A, cells depend on it, form not given)
T2 construct: BAF3 FL KIT EX11DEL/V654A
Method: as §1, §2, §3

BAF3 FL KIT EX11DEL = biological target: T3, BAF3 FL KIT EX11DEL (Homo sapiens, UniProt P10721, cells depend on it, form not given)
T3 construct: BAF3 FL KIT EX11DEL
Method: as §1, §2, §3

[3] = biological target: T4, BAF3 FL KIT EX11DEL/D816H (Homo sapiens, UniProt P10721, D816H, cells depend on it, form not given)
T4 construct: BAF3 FL KIT EX11DEL/D816H
Method: as §1, §2, §3

T4 sequence (P10721 with tags, fused parts or gaps DEL557-558/D816H, form open): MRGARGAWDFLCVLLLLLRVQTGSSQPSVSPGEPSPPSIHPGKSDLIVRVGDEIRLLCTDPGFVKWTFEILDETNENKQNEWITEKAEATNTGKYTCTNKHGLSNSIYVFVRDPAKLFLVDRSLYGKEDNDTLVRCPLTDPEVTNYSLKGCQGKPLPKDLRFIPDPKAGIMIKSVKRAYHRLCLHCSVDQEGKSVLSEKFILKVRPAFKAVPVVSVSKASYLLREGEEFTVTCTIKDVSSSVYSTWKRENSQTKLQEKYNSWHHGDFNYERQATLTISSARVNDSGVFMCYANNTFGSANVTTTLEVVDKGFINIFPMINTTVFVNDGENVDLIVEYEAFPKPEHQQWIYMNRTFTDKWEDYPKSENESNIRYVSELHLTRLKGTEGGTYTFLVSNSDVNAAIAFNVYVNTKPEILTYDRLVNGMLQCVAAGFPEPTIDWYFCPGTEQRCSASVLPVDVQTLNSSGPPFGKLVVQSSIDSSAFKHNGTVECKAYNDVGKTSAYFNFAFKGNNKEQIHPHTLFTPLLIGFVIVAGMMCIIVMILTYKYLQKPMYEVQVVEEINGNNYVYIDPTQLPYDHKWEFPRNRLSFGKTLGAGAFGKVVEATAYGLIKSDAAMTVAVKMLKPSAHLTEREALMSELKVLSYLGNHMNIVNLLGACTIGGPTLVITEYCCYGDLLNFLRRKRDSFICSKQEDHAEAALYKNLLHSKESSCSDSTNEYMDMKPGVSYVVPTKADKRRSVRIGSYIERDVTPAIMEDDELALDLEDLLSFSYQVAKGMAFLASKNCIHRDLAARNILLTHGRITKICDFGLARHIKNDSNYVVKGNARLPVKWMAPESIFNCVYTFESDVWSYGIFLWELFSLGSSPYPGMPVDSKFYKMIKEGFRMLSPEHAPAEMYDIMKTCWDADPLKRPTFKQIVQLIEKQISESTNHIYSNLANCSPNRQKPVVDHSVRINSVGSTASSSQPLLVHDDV
T3 sequence (P10721 with tags, fused parts or gaps DEL557-558): as the sequence (P10721 with tags, fused parts or gaps DEL557-558/D816H, form open) above, with H814D counted along it
T1 sequence (P10721 with tags, fused parts or gaps DEL557-558/T670I, form open): as the sequence (P10721 with tags, fused parts or gaps DEL557-558/D816H, form open) above, with T668I, H814D counted along it
T2 sequence (P10721 with tags, fused parts or gaps DEL557-558/V654A, form open): as the sequence (P10721 with tags, fused parts or gaps DEL557-558/D816H, form open) above, with V652A, H814D counted along it

Row | Compound | GI50 [1] [nM] | GI50 [2] [nM] | GI50 (BAF3 FL KIT EX11DEL) [nM] | GI50 [3] [nM]
1 | Cc1ccc(C(=O)Nc2cc(C(F)(F)F)ccn2)cc1C#Cc1cnc(NC(=O)N(C)C2CCN(C)CC2)s1 [I-29, 4-methyl-3-((2-(3-methyl-3-(1-methylpiperidin-4-yl)ureido)thiazol-5-yl)ethynyl)-N-(4-(trifluoromethyl)pyridin-2-yl)benzamide] | < 10 | 10 to 50 | < 10 | < 10
2 | COCCN(C)C(=O)Nc1ncc(C#Cc2cc(C(=O)Nc3cccc(C(F)(F)F)c3OC)ccc2C)s1 [I-47, N-(2-methoxy-3-(trifluoromethyl)phenyl)-3-((2-(3-(2-methoxyethyl)-3-methylureido)thiazol-5-yl)ethynyl)-4-methylbenzamide] | 100 to 10000 | 10 to 50 | < 10 | 10 to 50
3 | COCCN(C)C(=O)Nc1ncc(C#Cc2cc(C(=O)Nc3ccc(C#N)c(C(F)(F)F)c3)ccc2C)s1 [I-48, N-(4-cyano-3-(trifluoromethyl)phenyl)-3-((2-(3-(2-methoxyethyl)-3-methylureido)thiazol-5-yl)ethynyl)-4-methylbenzamide] | 10 to 50 | 50 to 100 | < 10 | 10 to 50
4 | CNC(=O)Nc1ncc(C#Cc2cc(NC(=O)c3cc(C(F)(F)F)ccn3)ccc2C)s1 [I-57, N-(4-methyl-3-((2-(3-methylureido)thiazol-5-yl)ethynyl)phenyl)-4-(trifluoromethyl)picolinamide] | 10 to 50 | < 10 | < 10 | < 10
5 | Cc1ccc(C(=O)Nc2cc(C(F)(F)F)ccn2)cc1C#Cc1cnc(NC(=O)N2CC(C)(O)C2)s1 [I-24, 3-hydroxy-3-methyl-N-(5-((2-methyl-5-((4-(trifluoromethyl)pyridin-2-yl)carbamoyl)phenyl)ethynyl)thiazol-2-yl)azetidine-1-carboxamide] | < 10 | < 10 | < 10 | < 10
6 | CCN(C)C(=O)Nc1ncc(C#Cc2cc(C(=O)Nc3cc(C(F)(F)F)ccn3)ccc2C)s1 [I-8, 3-((2-(3-ethyl-3-methylureido)thiazol-5-yl)ethynyl)-4-methyl-N-(4-(trifluoromethyl)pyridin-2-yl)benzamide] | < 10 | 10 to 50 | < 10 | < 10
7 | Cc1ccc(C(=O)Nc2cc(C(F)(F)F)ccn2)cc1C#Cc1cnc(NC(=O)N(C)CC2CCCN2C)s1 (stereo not shown) [I-20, 4-methyl-3-((2-(3-methyl-3-((1-methylpyrrolidin-2-yl)methyl)ureido)thiazol-5-yl)ethynyl)-N-(4-(trifluoromethyl)pyridin-2-yl)benzamide] | 10 to 50 | 10 to 50 | < 10 | 10 to 50
8 | Cc1ccc(C(=O)Nc2cc(C(F)(F)F)ccn2)cc1C#Cc1cnc(NC(=O)N(C)CCN2CCN(C)CC2)s1 [I-16, 4-methyl-3-((2-(3-methyl-3-(2-(4-methylpiperazin-1-yl)ethyl)ureido)thiazol-5-yl)ethynyl)-N-(4-(trifluoromethyl)pyridin-2-yl)benzamide] | < 10 | 10 to 50 | < 10 | 10 to 50
9 | Cc1ccc(C(=O)Nc2cc(C(F)(F)F)ccn2)cc1C#Cc1cnc(NC(=O)N(C)C2CCC(N)CC2)s1 (stereo not shown) [I-33, 3-((2-(3-(4-aminocyclohexyl)-3-methylureido)thiazol-5-yl)ethynyl)-4-methyl-N-(4-(trifluoromethyl)pyridin-2-yl)benzamide] | 10 to 50 | 50 to 100 | 10 to 50 | 50 to 100
10 | COCCN(C)C(=O)Nc1ncc(C#Cc2cc(NC(=O)c3cc(C(F)(F)F)ccn3)ccc2F)s1 [I-62, N-(4-fluoro-3-((2-(3-(2-methoxyethyl)-3-methylureido)thiazol-5-yl)ethynyl)phenyl)-4-(trifluoromethyl)picolinamide] | < 10 | 10 to 50 | < 10 | 10 to 50
11 | Cc1ccc(C(=O)Nc2ccc(CN3CCN(C)CC3)c(C(F)(F)F)c2)cc1C#Cc1cnc(NC(=O)C2CC2)s1 [I-50, 3-((2-(cyclopropanecarboxamido)thiazol-5-yl)ethynyl)-4-methyl-N-(4-((4-methylpiperazin-1-yl)methyl)-3-(trifluoromethyl)phenyl)benzamide] | 10 to 50 | 100 to 10000 | 10 to 50 | 10 to 50
12 | Cc1ccc(C(=O)Nc2cc(C(F)(F)F)ccn2)cc1C#Cc1cnc(NC(=O)NCC(C)(C)O)s1 [I-15, 3-((2-(3-(2-hydroxy-2-methylpropyl)ureido)thiazol-5-yl)ethynyl)-4-methyl-N-(4-(trifluoromethyl)pyridin-2-yl)benzamide] | 10 to 50 | 10 to 50 | < 10 | 10 to 50
13 | Cc1ccc(C(=O)Nc2cc(C(F)(F)F)ccn2)cc1C#Cc1cnc(NC(=O)NCCN2CCOCC2)s1 [I-6, 4-methyl-3-((2-(3-(2-morpholinoethyl)ureido)thiazol-5-yl)ethynyl)-N-(4-(trifluoromethyl)pyridin-2-yl)benzamide] | 10 to 50 | 10 to 50 | < 10 | 10 to 50
14 | Cc1ccc(C(=O)Nc2cc(C(F)(F)F)ccn2)cc1C#Cc1cnc(NC(=O)N(C)C2CCCN(C)C2)s1 (stereo not shown) [I-32, 4-methyl-3-((2-(3-methyl-3-(1-methylpiperidin-3-yl)ureido)thiazol-5-yl)ethynyl)-N-(4-(trifluoromethyl)pyridin-2-yl)benzamide] | 10 to 50 | 10 to 50 | < 10 | 10 to 50
15 | Cc1ccc(C(=O)Nc2cc(C(F)(F)F)ccn2)cc1C#Cc1cnc(NC(=O)NCC2CCN(C)CC2)s1 [I-13, 4-methyl-3-((2-(3-((1-methylpiperidin-4-yl)methyl)ureido)thiazol-5-yl)ethynyl)-N-(4-(trifluoromethyl)pyridin-2-yl)benzamide] | 10 to 50 | 10 to 50 | < 10 | 10 to 50
16 | Cc1ccc(C(=O)Nc2cc(C(F)(F)F)ccn2)cc1C#Cc1cnc(NC(=O)NCCN2CCN(C)CC2)s1 [I-14, 4-methyl-3-((2-(3-(2-(4-methylpiperazin-1-yl)ethyl)ureido)thiazol-5-yl)ethynyl)-N-(4-(trifluoromethyl)pyridin-2-yl)benzamide] | 10 to 50 | 10 to 50 | < 10 | 10 to 50
17 | Cc1ccc(C(=O)Nc2cc(C(F)(F)F)ccn2)cc1C#Cc1cnc(NC(=O)N(C)CC(C)(C)O)s1 [I-21, 3-((2-(3-(2-hydroxy-2-methylpropyl)-3-methylureido)thiazol-5-yl)ethynyl)-4-methyl-N-(4-(trifluoromethyl)pyridin-2-yl)benzamide] | 10 to 50 | 10 to 50 | < 10 | 10 to 50
18 | Cc1ccc(C(=O)Nc2cc(C(F)(F)F)ccn2)cc1C#Cc1cnc(NC(=O)NCc2ccncc2)s1 [I-26, 4-methyl-3-((2-(3-(pyridin-4-ylmethyl)ureido)thiazol-5-yl)ethynyl)-N-(4-(trifluoromethyl)pyridin-2-yl)benzamide] | 10 to 50 | 10 to 50 | 10 to 50 | 10 to 50
19 | Cc1ccc(C(=O)Nc2cc(C(F)(F)F)ccn2)cc1C#Cc1cnc(NC(=O)NC2CC2)s1 [I-17, 3-((2-(3-cyclopropylureido)thiazol-5-yl)ethynyl)-4-methyl-N-(4-(trifluoromethyl)pyridin-2-yl)benzamide] | 10 to 50 | 10 to 50 | < 10 | 10 to 50
20 | Cc1ccc(C(=O)Nc2cc(C(F)(F)F)ccn2)cc1C#Cc1cnc(NC(=O)NCCN2CCC(O)C2)s1 (stereo not shown) [I-18, 3-((2-(3-(2-(3-hydroxypyrrolidin-1-yl)ethyl)ureido)thiazol-5-yl)ethynyl)-4-methyl-N-(4-(trifluoromethyl)pyridin-2-yl)benzamide] | 10 to 50 | 10 to 50 | < 10 | 10 to 50
21 | COCCN(C)C(=O)Nc1ncc(C#Cc2cc(C(=O)Nc3cc(C(F)(F)F)ccn3)ccc2C)s1 [I-7, 3-((2-(3-(2-methoxyethyl)-3-methylureido)thiazol-5-yl)ethynyl)-4-methyl-N-(4-(trifluoromethyl)pyridin-2-yl)benzamide] | < 10 | 10 to 50 | < 10 | 10 to 50
22 | Cc1ccc(C(=O)Nc2cc(C(F)(F)F)ccn2)cc1C#Cc1cnc(NC(=O)C2CC2)s1 [I-49, 3-((2-(cyclopropanecarboxamido)thiazol-5-yl)ethynyl)-4-methyl-N-(4-(trifluoromethyl)pyridin-2-yl)benzamide] | 10 to 50 | 10 to 50 | < 10 | 10 to 50
